Source: patent US7696197B2, “Use of a phenothiazine derivative for preventing and/or treating hearing loss” (Societe de Conseils de Recherches et d'Applications …, priority 2004, dated 2010)

Tested on: neuromast acoustic hair cells
Experiment: Ototoxicity induced by gentamicin in zebrafish, DASPEI staining of neuromast acoustic hair cells
Format: in vivo
Settings: 24 hours, fish aged 5 days
Description: Zebrafish display the sensory organs on the surface of their bodies, called neuromasts. In these fish, the neuromast acoustic hair cells can be stained with DASPEI and this staining reflects the number of acoustic hair cells. These acoustic hair cells are structurally and functionally similar to the internal acoustic hair cells of the human ear.
Damage to the internal acoustic hair cells is induced in zebrafish by gentamicin. In order to test the effect of compound (1) on the protection of the acoustic hair cells damaged by gentamicin, the compound (1) was administered as a co-treatment with gentamicin. The internal acoustic hair cells are then stained and quantified.
The study is undertaken on fish aged 5 days incubated with 1 μg/ml of gentamicin for 24 hours in the presence or in the absence of compound (1). Controls are carried out in parallel; single vehicle (1% DMSO; positive control). The fish treated with gentamicin are the negative controls.
DASPEI (2,4-dimethyl-aminostyryl-N-ethyl pyridinium iodide) staining is carried out in order to visualize the acoustic hair cells in vivo (n=5 per group). Morphometric analysis is used in order to quantify the staining signal of the acoustic hair cells. The signal for DASPEI staining of the positive controls was defined as 100%. […]

gentamicin
DASPEI staining signal of acoustic hair cells, % of the control signal (gentamicin 1 μg/ml alone (negative control)): 31.5±4.2% | loss of the acoustic hair cells following treatment with gentamicin (gentamicin 1 μg/ml alone): 68.5±4.9%
